Test results published in patent US5656452A, “NF-ATp, ' a T lymphocyte DNA-binding protein” (President and Fellows of Harvard College, priority 1993, dated 1997).

Tests used:
[1] = tested on: NF-ATp dephosphorylation in Ar-5 T cell extracts; assay: Dephosphorylation of NF-ATp (apparent molecular weight by SDS-PAGE, renaturation, EMSA) in extracts of drug-treated Ar-5 T cells; format: cell-based, murine; settings: prior treatment of T cells for 10 minutes with 1 μM CsA or 100 nM FK506 before lysis
Experimental: To prepare hypotonic extracts, cells were harvested by centrifugation, washed with phosphate buffered saline and resuspended to 10^8 cells/ml in buffer containing 7.5 mM Tris (pH 7.6), 2 mM PMSF, 1 mM MgCl2, 0.5 mM DTT, 0.25 mM leupeptin, 0.1 mM EDTA and 1 mg/ml aprotinin. The cells were lysed by quick-freezing in dry ice and rapid thawing in a room-temperaturewater bath, followed by centrifugation at 12,000 x g for 10 minutes. Where indicated, cells were treated before harvesting with 1 μM CsA (Sandoz Corp.) or 100 nM FK506 (Fujisawa Pharmaceutical) for 10 minutes at 37° C.
Hypotonic or nuclear extracts were boiled in SDS-PAGE sample buffer (65 mM Tris, pH 6.8, 2% SDS, 2% 2-mercaptoethanol, 10% glycerol, 0.01 mg/ml bromphenol blue) and fractionated on 3 mm thick SDS-polyacrylamide gels by standard methods (Laemmli, U. K. (1970) Nature 227, 680-685). Molecular weight standards (BioRad Laboratories) were also run on the same gel. After electrophoresis, the standards were cut off and separately stained. For recovery of proteins from the gels, slices (1 cm×0.5 cm) from wet, unfixed gels were crushed and eluted overnight in 50 mM Tris, pH 7.9, 1 mM DTT, 0.2 mM EDTA, 0.1 mM PMSF, 0.1 mg/ml BSA, 2.5% glycerol and 0.1% SDS (Baeuerle, P., and Baltimore, D. (1988) Cell 53, 211-217). […]

[2] = tested on: Ar-5 T cells (NF-AT induction, IL-2 gene expression); assay: Induction of NF-AT and IL-2 gene expression in activated Ar-5 T cells; format: cell-based, murine; settings: Ar-5 cells activated through T cell antigen receptor/CD3
Experimental: For preparation of nuclear extracts from activated T cells, cells were incubated for two hours with cross-linked anti-CD3ε monoclonal antibody (145-2C11, Kubo, R. T., Born, W., Kappler, J. W., Marrack, P., and Pigeon, M. (1989) J. Immunol. 142, 2736-2742) in the presence or absence of 1 μM CsA. Activation conditions and preparation of nuclear extracts was exactly as previously described (McCaffrey, P. G., Jain, J., Jamieson, C., Sen, R., and Rao, A. (1992) J. Biol. Chem. 267, 1864-1871). Protein determinations were done by the method of Bradford (Bradford, M. (1976) Anal. Biochem. 72,248-254), using bovine serum albumin as a standard.
To characterize the preexisting, DNA-binding component of NF-AT, we have used the murine IL-2 dependent T cell clone Ar-5. Activation of Ar-5 cells with monoclonal antibodies to the T cell antigen receptor or its associated CD3 complex causes the rapid appearance in the nucleus of several inducible transcription factor including NF-AT, which is followed by expression of the IL-2 gene and cell proliferation (Jamieson, C., McCaffrey, P. G., Rao, A., and Sen, R. (1991) J. Immunol. 147,416-420). […] We have previously established that unactivated Ar-5 cells contain a protein or proteins, extracted under hypotonic lysis conditions, that can bind in the EMSA to an oligonucleotide comprising the distal NF-AT sequence from the murine IL-2 promoter. […]

## C=CC[C@@H]1/C=C(\C)C[C@H](C)C[C@H](OC)[C@H]2O[C@@](O)(C(=O)C(=O)N3CCCC[C@H]3C(=O)O[C@H](/C(C)=C/[C@@H]3CC[C@@H](O)[C@H](OC)C3)[C@H](C)[C@@H](O)CC1=O)[C@H](C)C[C@@H]2OC [FK506]
[1]
  Dephosphorylation of NF-ATp in cell extracts: inhibited
[2]
  Induction of NF-AT and subsequent IL-2 gene expression: completely blocked
